Experimental data taken from patent US6726894B1, “Transport vehicles for macromolecules” (priority 1995, dated 2004).

Columns and labels:
COS-7 cells [1] = test: Toxicity study, residual protein content of COS-7 cells
COS-7 cells [2] = test: Transfection of COS-7 cells (CAT-assay); type: cell-based

CCCCCCCCC=CCCCCCCCCC(CCCCCCCCC=CCCCCCCCC)c1cc[n+](C)cc1.[Cl-] (stereo not drawn) [SAINT-2, 1-Methyl-4-(19-cis,cis-heptatritiaconta-9,28-dienyl)pyridinium Chloride]
lipid concentration from which decrease of protein content was observed (COS-7 cells [1]): 90 µM | toxicity compared with DOTMA-DOPE (COS-7 cells [1]): clearly less toxic | residual protein content after decrease (COS-7 cells [1]; decrease from 2 mg/ml): 1.75 mg/mL | transfection efficiency with respect to DOTMA/DOPE vesicles (COS-7 cells [2]; COS-7 cells, FIG. 1): eight | transfection efficiency with respect to Lipofectine (COS-7 cells [2]; dependent on the cell type): at least eight
